In patent publication US11976042B1, “9-(5-bromo-2-hydroxyphenyl)-10-[3-(dimethylamino)propyl]-3,4,6,7,9,10-hexahydroacridine-1,8(2H,5H)-dione as an antimicrobial compound” (KING FAISAL UNIVERSITY, priority 2023, dated 2024):

Columns and labels:
Test in all cases: antimicrobial activity by agar dilution
Assay type in all cases: cell-based
Details in all cases: after 10, 20, 40 and 60 minutes at all dilutions 1:100 to 1:800
Ps. Aeruginosa = tested on: Ps. Aeruginosa
Procedure: (§1) The antimicrobial properties of the synthesized compound 9-(5-bromo-2-hydroxyphenyl)-10-[3-(dimethylamino)propyl]-3,4,6,7,9,10-hexahydroacridine-1,8(2H,5H)-dione were studied by the method of agar dilution. Test solutions of each compound were prepared in a concentration of 1% using dimethylformamide as a solvent. Then they were diluted in a physiological solution to obtain the final experimental dilutions 1:100, 1:200, 1:400, and 1:800. The effect of these substances were compared with furacillin in a controllable study. The testing microbes used were gram positive bacteria St. Aereus, gram negative bacteria E. Coli and Ps. Aeruginosa, and Candida albicans fungi. The experiments used for this survey were meat-pentonlu agar (EPA) for cultivation of bacteria and Saburo environment for fungi. Each experiment used 1 ml of test solution on each plate 500 min. Add 2 drops of emulsified with microbes feel. All experimental samples were taken from the agar after 10, 20, 40, 60 minutes in the environment on the basis of Patrk planted. Bacteria were cultivated at a temperature of 37° C. for 1 day and the mushroom was kept in a thermostat for […] at a temperature of 28° C. Then the results were checked.

Candida albicans = tested on: Candida albicans
Procedure: as §1

E. Coli = tested on: E. Coli
Procedure: as §1

St. Aereus = tested on: St. Aereus
Procedure: as §1

Measured: inhibition activity

CN(C)CCCN1C2=C(C(=O)CCC2)C(c2cc(Br)ccc2O)C2=C1CCCC2=O [9-(5-bromo-2-hydroxyphenyl)-10-[3-(dimethylamino)propyl]-3,4,6,7,9,10-hexahydroacridine-1,8(2H,5H)-dione]
highest inhibition activity: all assays above
